Results: patent US9238658B2, “Substituted piperidinyl-carboxamide derivatives useful as SCD 1 inhibitors” (Janssen Pharmaceutica NV, priority 2011, dated 2016)
Several values for one entry are separate records, joined by “and”; a condition that tells them apart may be missing. Identical values can stand only once. Marks after values point to notes of the source that are not given here.

Assays:
SCD1 [1] = target: T1, SCD1 (Homo sapiens (Human), UniProt O00767); assay: SCD1 14C-palmitate assay in A431 cells; assay type: cell-based; settings: read-out: A431 cells 14C-PA IC50
T1 sequence (O00767 whole entry): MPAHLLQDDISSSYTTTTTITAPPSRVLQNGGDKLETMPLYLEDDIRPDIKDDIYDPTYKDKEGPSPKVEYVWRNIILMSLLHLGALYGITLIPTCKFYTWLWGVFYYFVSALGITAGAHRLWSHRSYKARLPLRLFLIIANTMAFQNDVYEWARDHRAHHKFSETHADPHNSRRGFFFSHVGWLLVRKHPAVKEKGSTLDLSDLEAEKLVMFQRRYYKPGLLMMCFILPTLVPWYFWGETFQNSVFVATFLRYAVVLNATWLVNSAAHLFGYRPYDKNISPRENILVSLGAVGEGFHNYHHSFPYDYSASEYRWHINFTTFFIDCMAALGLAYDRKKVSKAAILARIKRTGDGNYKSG
Experimental: Human epithelial carcinoma A431 cells were seeded at 400,000 cells per well in 48-well tissue culture plate and treated with 2 cycles of fasting in low glucose medium (DMEM, Cellgro #10-014-CV, 1 g/L glucose, 2% Charcoal Filtered FBS) for 24 hours; and re-feeding with high glucose medium for 24 hours (DMEM, Cellgro #10-013-CM, 4.5 g/L glucose, 10% Charcoal Filtered FBS and 0.05 mg/mL Lilly Humulin R, Cat.#, HI-210). Prior to running the assay, the cells were washed twice with high glucose medium (400 μL), followed by addition of 250 μL assay buffer (DMEM, 4.5 g/L glucose, 0.05 mg/mL Human Insulin, 0.1% Fatty Acid Free BSA) to each well. Then, 100 μL of assay buffer containing 20 μM Palmitic Acid, 0.05 μCi ^14C Palmitic Acid (Perkin Elmer, NEC075H) and test compound (at selected concentration) was added to each well. The cells were then Incubated at 37° C. and 5% CO2 tissue culture incubator for 4 hours, followed by extensive washes with pre-chilled PBS. The cell plates were then frozen at −20° C. overnight. After thawing out the plates, 100 μL of 1N KOH was added to each well and the plates were incubated at 37° C. for 30 mins. Cell lysates were transferred to 1 mL Eppendorf tubes and incubated at 95° C. for 1 hour, followed by addition of 10 μL formic acid and 220 μL acetonitrile. The tubes were then centrifuged at 12,000 rpm and the supernatant dried under N2 for 2-3 hours. Dried extract was re-suspended in 60 μL hexane and loaded onto TLC plates (pre-coated with 10% AgNO3 in acetonitrile). The TLC plates were placed into glass running chamber containing 200 mL running solution (100 mL running solution: 92.5 mL chloroform, 6 mL methanol, 750 μL acetic acid, 750 μL dH2O). After running, the TLC plates were air dried and scanned on Bioscan AR-2000 for quantification of ^14C-palmitioleate and ^14C-palmitate peaks. Area under the curve of the peaks were used to calculate product/substrate ratio, an index of SCD1 activity.

SCD1 [2] = target: SCD1 (Rattus norvegicus (Rat), UniProt P07308); assay: SCD1 enzymatic assay in rat liver microsomes (RLM); assay type: biochemical; settings: for inhibition at 1 µM / % Inh. @ 1 μM: 1 μM test compound
SCD1 (Rattus norvegicus (Rat), UniProt P07308), sequence (P07308 whole entry): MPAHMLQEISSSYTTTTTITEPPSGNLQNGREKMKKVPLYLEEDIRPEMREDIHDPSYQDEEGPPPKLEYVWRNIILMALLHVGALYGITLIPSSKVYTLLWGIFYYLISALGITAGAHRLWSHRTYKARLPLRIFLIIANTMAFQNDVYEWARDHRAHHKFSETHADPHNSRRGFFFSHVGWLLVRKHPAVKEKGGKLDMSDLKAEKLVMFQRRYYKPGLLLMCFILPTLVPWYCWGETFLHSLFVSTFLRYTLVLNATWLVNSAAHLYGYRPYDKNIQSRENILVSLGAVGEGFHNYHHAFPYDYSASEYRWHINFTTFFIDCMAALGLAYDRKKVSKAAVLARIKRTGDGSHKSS
Experimental: Step 1: Preparation of Rat Liver Microsome (RLM)
Sprague Dawley rats from Charles River (200-225 g) underwent 2-cycle of fast-re-feeding (24-hour fast followed by 24-hour feeding with fat-free high carbohydrate diet, Research Diet, D00042802). The livers were removed and homogenized 1:4 (w/v) with pre-chilled, homogenizing buffer (10 mM Tris-HCl, 0.25 M sucrose, 1 mM EDTA, pH 7.4, supplemented with protease inhibitor cocktail). The homogenate was spun at 12,000×g for 15 min at 4° C. The supernatant was then re-centrifuged at 100,000×g for 60 min at 4° C. The pellet was re-suspended in 2 ml pre-chilled […] potassium phosphate buffer, pH 7.2, 10 mM EDTA at a concentration of 20 mg/ml. The resulting rat liver microsome (RLM) preparation was stored at […].
Step 2: SCD1 Enzymatic Assay in RLM:
The SCD1 enzymatic assay was done in a volume of 50 μL using 10 μg of RLM (prepared as described above) in a 96-well polypropylene plate (enzyme reaction buffer contains 0.1 M K-Phosphate Buffer, 10 mM ATP, 6 mM MgCl2, 1 mM CoA, 1 mM β-NADH, 1.6 mM L-glutathione, 20 μM Stearoyl-CoA). Stearoyl-[9,10-^3H]—CoA (ARC-0390, 1 mCi/mL, 60 Ci/mmol,) was added at a final concentration of 2 μCi/mL. Test compound was then added to the reaction mixture at the selected concentration. After incubation at room temperature for 2 hours, 5 μL 1 N HCl was added to stop the reaction, followed by addition of 25 μL of 10% charcoal. The reaction mixture was then transferred to 96-well Multiscreen plate (Millipore, Cat# MSFCN6B50). [^3H2O] was collected into Opti-plate (PE, Cat #6005290) by centrifuge, at 1,000 rpm for 2 minutes. 150 μL Microscint 40 (PE, cat #6013641) was then added to each well and counted on Topcount for [^3H] counts per minute (cpm). The measured cpm values were fitted with Sigmoidal dose-response curve fit with Graphpad Prism.

[3] = 10-day diet-induced obese C57bl/6 mice study; assay type: in vivo; settings: DIO C57BL/6J mice, oral, 10 days
Experimental: Male DIO C57BL/6J mice from Taconic were maintained on high fat diet D12492 containing 60% kCal of mostly saturated fats (Research Diets Inc.) for 4 week from 6-week old. Test compounds were prepared in 0.5% hydroxypropyl methyl cellulose for oral dosing at 10 mg/kg or 30 mg/kg, either q.d. or b.i.d., as noted in the results table below. After 10-days of treatment, body weight change are recorded. Plasma liver enzyme levels (ALT and AST) were also determined.
Compound #6 of the present invention was tested according to the procedure as described above, with results as listed in Table 4, below. In the results presented below, * indicates a calculated p value<0.05 vs. vehicle-treated group.

SCD1 [4] = target: T1, SCD1; assay: SCD1 13C-palmitic acid assay in A431 cells; assay type: cell-based; settings: read-out: A431 cells 13C-PA IC50
Experimental: Human epithelial carcinoma A431 cells were seeded at 100,000 cells/well in complete growth medium (DMEM, Cellgro #10-013-CM, 4.5 g/L glucose, 10% FBS) in the presence of 0.05 mg/mL human insulin (Hannas Pharmaceutical Supply Co Inc, Humanlin 100 U/ml, 4 mg/ml) in 96-well tissue culture plate. […] The cells were then returned to the tissue culture incubator (37° C. and 5% CO2) for 4 hrs. At the end of incubation, the cells were washed three times with 200 μL/well Hanks buffer (HBSS) and then stored at −20° C. until extraction.
For fatty acid extraction, after thawing out the plates, 40 μL of 1N KOH (containing 5 μM of internal standard 7,7,8,8-D4 palmitate) was added to each well and cell plates were incubated at 37° C. for 30 minutes. […] Acetonitrile (100 μL) was then added to extract fatty acids, followed by centrifugation at 3000 rpm for 10 minutes. 75 μL of extract was then transferred to a new glass vial in a 96-well cluster plate. 5 μL was injected for LC/MS analysis for detection of ^13C-palmitic acid and ^13C-palmitoleic acid. Formation of product ^13C-palmitoleic acid was determined as an index of SCD1 activity.
LC/MS analysis was performed as following. An Agilent 1100 Liquid Chromatographic System (Palo Alto, Calif.) consisting of a binary pump, a degasser and an autosampler was used. Separation of free fatty acids was performed on a Zorbax SB—C8 column (2.1×50 mm, particle size=3.5 μm). An isocratic elution was carried out with 10 mM triethylamine acetate in water:acetonitrile (3:7) at a flow rate of 0.3 mL/min. The column temperature was set at 30° C. and the sample injection volume was 5 μL. The LC run cycle was 4 min, A Micromass triple-quadrupole Quattro Micro mass […] (Waters, Beverly, Mass.) was interfaced with the LC system through a Z-spray electrospray ion source and was operated in the negative ion mode. Nitrogen was used as nebulizing gas, desolvation gas and cone curtain gas and argon was chosen as collision gas. The triple quadrupole MS source parameters were set as follows: capillary voltage, 3200V; cone voltage, 25V; extractor 2V, source temperature, 120° C.; desolvation temperature, 300° C.; cone gas flow, 50 L/h; and desolvation gas flow, 700 L/h. […] MassLynx software version 4.0 was used for system control and data processing. The signal of U—^13C-palmitoleic acid was normalized to an internal standard.

Row | IC50 (SCD1 [1]) | IC50 (SCD1 [2]) | inhibition at 1 µM (SCD1 [2]) | IC50 (SCD1 [4]) | SMILES | further results
1 |  | 0.085 µM | 55% | 0.176 µM | O=C(Nc1nc2c(s1)COCC2)N1CCC(c2noc3ccc(F)cc23)CC1 [Compound 63, N-(6,7-dihydro-4H-pyrano[4,3-d]thiazol-2-yl)-4-(5-fluorobenzo[d]isoxazol-3-yl)piperidine-1-carboxamide] | 
2 |  | 0.029 µM | 91% | 0.016 µM | O=C(Nc1nc2c(s1)CNCC2)N1CCC(N2CCc3ccc(F)cc32)CC1 [Compound 36, 4-(6-fluoroindolin-1-yl)-N-(4,5,6,7-tetrahydrothiazolo[5,4-c]pyridin-2-yl)piperidine-1-carboxamide] | 
3 |  | 0.011 µM | 92% | 0.03 µM | O=C(Nc1ncc(CCO)s1)N1CCC(c2noc3ccc(F)cc23)CC1 [Compound 55, 4-(5-fluorobenzo[d]isoxazol-3-yl)-N-(5-(2-hydroxyethyl)thiazol-2-yl)piperidine-1-carboxamide] | 
4 |  | 0.322 µM | 61% | 0.161 µM | O=C(Nc1cccc(CO)c1)N1CCC(N2CCc3ccc(F)cc32)CC1 [Compound 43, 4-(6-fluoroindolin-1-yl)-N-(3-(hydroxymethyl)phenyl)piperidine-1-carboxamide] | 

More lines, now with the values behind:

Row | SMILES | IC50 (SCD1 [1]) | IC50 (SCD1 [2]) | inhibition at 1 µM (SCD1 [2]) | IC50 (SCD1 [4]) | further results
5 | CNC(=O)c1cccc(NC(=O)N2CCC(n3ccc4ccccc43)CC2)c1 [Compound 2, 4-(1H-indol-1-yl)-N-(3-(methylcarbamoyl)phenyl)piperidine-1-carboxamide] | 0.376 µM and 0.384 µM | 0.17 µM | 84% |  | 
6 | CNC(=O)c1cccc(NC(=O)N2CCC(N3CCc4ccccc43)CC2)c1 [Compound 12, 4-(indolin-1-yl)-N-(3-(methylcarbamoyl)phenyl)piperidine-1-carboxamide] | 0.755 µM | 0.151 µM | 82% |  | 
7 | Cc1csc(NC(=O)N2CCC(c3noc4ccc(F)cc34)CC2)n1 [Compound 6, 4-(5-fluorobenzo[d]isoxazol-3-yl)-N-(4-methylthiazol-2-yl)-piperidine-1-carboxamide] | 0.29 µM | 0.14 µM | 88% | 0.054 µM | Body weight change (g) ([3]; 10 mg/kg, q.d): 0.00 ± 0.36* g; Plasma ALT (U/L) ([3]; 10 mg/kg, q.d): 57 ± 7 U/L; Plasma AST (U/L) ([3]; 10 mg/kg, q.d): 89 ± 7 U/L; Body weight change (g) ([3]; 30 mg/kg, bid): −0.69 ± 0.38 * g; Plasma ALT (U/L) ([3]; 30 mg/kg, bid): 41 ± 3 U/L; Plasma AST (U/L) ([3]; 30 mg/kg, bid): 102 ± 17 U/L; Body weight change (g) ([3]; 30 mg/kg, q.d): 0.01 ± 0.24* g; Plasma ALT (U/L) ([3]; 30 mg/kg, q.d): 68 ± 12 U/L; Plasma AST (U/L) ([3]; 30 mg/kg, q.d): 93 ± 7 U/L; % Inh. @ 1 μM (SCD1 [2]): 95% and 77%
8 | CNC(=O)c1cccc(NC(=O)N2CCC(c3noc4ccc(F)cc34)CC2)c1 [Compound 5] | 0.711 µM and 0.726 µM | 0.413 µM | 74% |  | 
9 | Cc1csc(NC(=O)N2CCC(n3ccc4ccccc43)CC2)n1 [Compound 4, 4-(1H-indol-1-yl)-N-(4-methylthiazol-2-yl)-piperidine-1-carboxamide] | 0.209 µM and 0.325 µM | 0.573 µM and 0.502 µM | 70% |  | 
10 | CCCc1nc2ccc(NC(=O)N3CCC(c4noc5ccc(F)cc45)CC3)cc2s1 [Compound 9, 4-(5-fluorobenzo[d]isoxazol-3-yl)-N-(2-propylbenzo[d]thiazol-6-yl)piperidine-1-carboxamide] | 0.64 µM | 0.444 µM | 79% |  | 
11 | O=C(Nc1nc(CCO)cs1)N1CCC(N2CCc3ccc(F)cc32)CC1 [Compound 29, 4-(6-fluoroindolin-1-yl)-N-(4-(2-hydroxyethyl)thiazol-2-yl)piperidine-1-carboxamide] |  | 0.02 µM | 94% | 0.018 µM | 
12 | Cc1csc(NC(=O)N2CCC(N3CCCc4ccccc43)CC2)n1 [Compound 13, 4-(3,4-dihydroquinolin-1(2H)-yl)-N-(4-methylthiazol-2-yl)piperidine-1-carboxamide] | 0.848 µM | 0.491 µM | 81% |  | 
13 | Cc1csc(NC(=O)N2CCC(N3CCc4ccccc43)CC2)n1 [Compound 3, 4-(indolin-1-yl)-N-(4-methylthiazol-2-yl)piperidine-1-carboxamide] | 0.804 µM and 0.379 µM | 0.161 µM and 0.145 µM | 70% |  | % Inh. @ 1 μM (SCD1 [2]): 76%
